Results published in the kinase profiling compilation of Christmann-Franck et al. (2016).

Assays:
Assay in all cases: Caliper, Mobility shift assay off-chip
AURKB (human) = AURKB (human) (UniProt Q96GD4)
AURKC (human) = AURKC (human) (UniProt Q9UQB9)
BTK (human) = BTK (human) (UniProt Q06187)
CDK6 (human) = CDK6 (human) (UniProt Q00534)
CHEK1 (human) = CHEK1 (human) (UniProt O14757)
CLK1 (human) = CLK1 (human) (UniProt P49759)
CSNK1G2 (human) = CSNK1G2 (human) (UniProt P78368)
CSNK1G3 (human) = CSNK1G3 (human) (UniProt Q9Y6M4)
EPHA7 (human) = EPHA7 (human) (UniProt Q15375)
EPHB3 (human) = EPHB3 (human) (UniProt P54753)
GSK3A (human) = GSK3A (human) (UniProt P49840)
HCK (human) = HCK (human) (UniProt P08631)
KDR (human) = KDR (human) (UniProt P35968)
MAPK9 (human) = MAPK9 (human) (UniProt P45984)
MARK1 (human) = MARK1 (human) (UniProt Q9P0L2)
MARK2 (human) = MARK2 (human) (UniProt Q7KZI7)
MELK (human) = MELK (human) (UniProt Q14680)
MUSK (human) = MUSK (human) (UniProt O15146)
NEK7 (human) = NEK7 (human) (UniProt Q8TDX7)
PIK3CA PIK3R1 (human) = PIK3CA PIK3R1 (human) (UniProt P27986+P42336)
PIM3 (human) = PIM3 (human) (UniProt Q86V86)
PLK1 (human) = PLK1 (human) (UniProt P53350)
PRKD1 (human) = PRKD1 (human) (UniProt Q15139)
RPS6KA4 KD1 KD2 (human) = RPS6KA4 KD1 KD2 (human) (UniProt O75676)
SGK2 (human) = SGK2 (human) (UniProt Q9HBY8)
SIK2 (human) = SIK2 (human) (UniProt Q9H0K1)
STK3 (human) = STK3 (human) (UniProt Q13188)
STK38 (human) = STK38 (human) (UniProt Q15208)
TBK1 (human) = TBK1 (human) (UniProt Q9UHD2)
TNIK (human) = TNIK (human) (UniProt Q9UKE5)
TNK1 (human) = TNK1 (human) (UniProt Q13470)
TXK (human) = TXK (human) (UniProt P42681)
WNK3 (human) = WNK3 (human) (UniProt Q9BYP7)
YES1 (human) = YES1 (human) (UniProt P07947)

Chain of SIK2 (human) (Q9H0K1 whole entry, looked up): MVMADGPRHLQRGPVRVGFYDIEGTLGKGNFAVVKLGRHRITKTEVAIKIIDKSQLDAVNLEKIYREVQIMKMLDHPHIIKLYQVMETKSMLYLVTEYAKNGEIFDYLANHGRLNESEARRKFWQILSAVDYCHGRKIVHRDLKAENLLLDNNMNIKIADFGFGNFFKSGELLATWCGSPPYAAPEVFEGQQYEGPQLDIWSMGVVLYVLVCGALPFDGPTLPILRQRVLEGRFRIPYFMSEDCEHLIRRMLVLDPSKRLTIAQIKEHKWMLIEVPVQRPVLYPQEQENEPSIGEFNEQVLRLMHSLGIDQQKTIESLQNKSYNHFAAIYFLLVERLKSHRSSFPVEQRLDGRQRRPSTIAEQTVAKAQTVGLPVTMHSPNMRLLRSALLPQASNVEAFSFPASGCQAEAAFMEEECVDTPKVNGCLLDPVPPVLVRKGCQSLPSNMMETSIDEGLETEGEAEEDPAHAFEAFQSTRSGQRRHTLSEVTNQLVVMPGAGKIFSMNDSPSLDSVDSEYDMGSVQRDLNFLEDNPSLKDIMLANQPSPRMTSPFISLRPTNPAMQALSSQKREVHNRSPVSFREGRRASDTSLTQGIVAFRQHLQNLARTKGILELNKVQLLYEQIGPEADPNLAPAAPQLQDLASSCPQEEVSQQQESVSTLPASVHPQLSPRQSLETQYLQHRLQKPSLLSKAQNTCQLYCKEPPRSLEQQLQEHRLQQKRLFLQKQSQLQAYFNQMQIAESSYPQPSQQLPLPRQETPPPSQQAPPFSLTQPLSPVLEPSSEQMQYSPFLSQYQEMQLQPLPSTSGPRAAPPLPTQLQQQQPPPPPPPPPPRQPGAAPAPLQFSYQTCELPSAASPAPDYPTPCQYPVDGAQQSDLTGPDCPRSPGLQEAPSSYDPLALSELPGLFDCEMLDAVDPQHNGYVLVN
Chain of CSNK1G3 (human) (Q9Y6M4 whole entry, looked up): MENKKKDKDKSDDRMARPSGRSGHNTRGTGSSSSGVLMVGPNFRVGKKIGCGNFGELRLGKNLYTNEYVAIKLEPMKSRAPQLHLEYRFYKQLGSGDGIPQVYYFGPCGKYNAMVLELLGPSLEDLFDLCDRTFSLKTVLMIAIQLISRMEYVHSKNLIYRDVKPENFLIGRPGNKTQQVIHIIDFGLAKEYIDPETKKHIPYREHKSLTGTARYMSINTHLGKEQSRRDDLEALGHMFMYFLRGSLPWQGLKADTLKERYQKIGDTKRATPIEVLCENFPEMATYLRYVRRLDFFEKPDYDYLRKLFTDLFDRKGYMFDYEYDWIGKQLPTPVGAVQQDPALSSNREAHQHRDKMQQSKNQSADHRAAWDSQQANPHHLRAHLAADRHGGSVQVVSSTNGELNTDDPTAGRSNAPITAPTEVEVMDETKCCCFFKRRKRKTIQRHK
Chain of MARK1 (human) (Q9P0L2 whole entry, looked up): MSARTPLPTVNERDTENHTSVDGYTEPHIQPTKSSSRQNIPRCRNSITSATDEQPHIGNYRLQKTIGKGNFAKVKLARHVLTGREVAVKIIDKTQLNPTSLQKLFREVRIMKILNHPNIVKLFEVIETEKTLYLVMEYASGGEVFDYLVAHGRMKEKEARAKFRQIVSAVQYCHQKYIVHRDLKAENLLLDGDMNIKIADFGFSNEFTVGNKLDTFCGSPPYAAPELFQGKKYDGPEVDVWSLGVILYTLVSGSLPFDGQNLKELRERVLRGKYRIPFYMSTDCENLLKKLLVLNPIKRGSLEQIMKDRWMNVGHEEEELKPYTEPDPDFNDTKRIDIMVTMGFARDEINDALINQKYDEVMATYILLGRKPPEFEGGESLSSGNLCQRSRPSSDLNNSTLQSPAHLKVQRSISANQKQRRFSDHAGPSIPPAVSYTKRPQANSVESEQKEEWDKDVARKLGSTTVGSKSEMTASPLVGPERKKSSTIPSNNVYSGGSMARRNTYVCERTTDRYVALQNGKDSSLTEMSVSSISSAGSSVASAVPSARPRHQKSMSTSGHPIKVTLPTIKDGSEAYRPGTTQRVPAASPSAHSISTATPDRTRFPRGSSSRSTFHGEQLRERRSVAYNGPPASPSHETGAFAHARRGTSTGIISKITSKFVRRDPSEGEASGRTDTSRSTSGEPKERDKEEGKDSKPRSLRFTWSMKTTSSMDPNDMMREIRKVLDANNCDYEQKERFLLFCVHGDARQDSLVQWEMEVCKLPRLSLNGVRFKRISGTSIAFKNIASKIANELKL
Chain of EPHB3 (human) (P54753 whole entry, looked up): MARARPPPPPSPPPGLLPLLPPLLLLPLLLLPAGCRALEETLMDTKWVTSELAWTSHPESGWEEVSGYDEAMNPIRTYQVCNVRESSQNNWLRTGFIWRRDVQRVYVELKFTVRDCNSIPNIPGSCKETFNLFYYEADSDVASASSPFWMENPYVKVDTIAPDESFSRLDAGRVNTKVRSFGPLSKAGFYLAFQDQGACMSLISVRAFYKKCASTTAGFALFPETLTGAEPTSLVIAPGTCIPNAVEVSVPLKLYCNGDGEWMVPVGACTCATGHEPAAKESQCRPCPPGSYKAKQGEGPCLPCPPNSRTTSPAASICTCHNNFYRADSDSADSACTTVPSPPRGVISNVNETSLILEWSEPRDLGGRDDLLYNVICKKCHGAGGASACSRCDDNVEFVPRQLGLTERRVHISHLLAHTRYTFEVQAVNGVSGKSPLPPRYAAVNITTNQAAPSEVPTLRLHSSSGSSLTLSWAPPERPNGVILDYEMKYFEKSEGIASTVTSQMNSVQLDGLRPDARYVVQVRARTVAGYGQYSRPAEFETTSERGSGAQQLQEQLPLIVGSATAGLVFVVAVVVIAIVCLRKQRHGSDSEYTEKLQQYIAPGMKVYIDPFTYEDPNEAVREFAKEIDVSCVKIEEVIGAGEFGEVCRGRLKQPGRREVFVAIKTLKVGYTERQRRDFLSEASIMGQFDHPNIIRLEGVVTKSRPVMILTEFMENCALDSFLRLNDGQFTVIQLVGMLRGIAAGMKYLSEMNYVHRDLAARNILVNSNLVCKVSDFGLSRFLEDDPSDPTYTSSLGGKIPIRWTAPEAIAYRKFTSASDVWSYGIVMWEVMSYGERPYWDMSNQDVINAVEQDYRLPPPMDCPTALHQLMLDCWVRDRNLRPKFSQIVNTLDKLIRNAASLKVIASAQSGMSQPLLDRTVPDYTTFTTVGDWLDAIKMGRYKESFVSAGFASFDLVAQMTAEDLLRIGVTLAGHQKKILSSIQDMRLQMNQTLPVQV
Chain of BTK (human) (Q06187 whole entry, looked up): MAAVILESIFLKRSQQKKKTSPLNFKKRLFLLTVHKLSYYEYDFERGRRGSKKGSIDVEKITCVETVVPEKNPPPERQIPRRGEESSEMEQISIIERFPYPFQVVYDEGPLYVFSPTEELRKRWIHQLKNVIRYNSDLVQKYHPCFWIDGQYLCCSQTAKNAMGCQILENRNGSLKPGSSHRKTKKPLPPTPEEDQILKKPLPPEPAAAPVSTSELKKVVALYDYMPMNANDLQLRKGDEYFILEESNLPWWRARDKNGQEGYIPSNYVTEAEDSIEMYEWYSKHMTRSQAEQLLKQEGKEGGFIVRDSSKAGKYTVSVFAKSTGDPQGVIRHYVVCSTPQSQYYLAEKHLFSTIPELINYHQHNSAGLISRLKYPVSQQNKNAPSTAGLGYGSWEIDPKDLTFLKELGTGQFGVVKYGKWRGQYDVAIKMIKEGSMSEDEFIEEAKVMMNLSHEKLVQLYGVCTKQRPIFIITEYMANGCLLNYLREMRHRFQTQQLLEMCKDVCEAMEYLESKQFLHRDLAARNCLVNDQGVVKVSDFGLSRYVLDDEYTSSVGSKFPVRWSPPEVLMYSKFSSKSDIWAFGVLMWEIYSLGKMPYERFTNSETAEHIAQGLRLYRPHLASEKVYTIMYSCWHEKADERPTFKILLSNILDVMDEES
Chain of GSK3A (human) (P49840 whole entry, looked up): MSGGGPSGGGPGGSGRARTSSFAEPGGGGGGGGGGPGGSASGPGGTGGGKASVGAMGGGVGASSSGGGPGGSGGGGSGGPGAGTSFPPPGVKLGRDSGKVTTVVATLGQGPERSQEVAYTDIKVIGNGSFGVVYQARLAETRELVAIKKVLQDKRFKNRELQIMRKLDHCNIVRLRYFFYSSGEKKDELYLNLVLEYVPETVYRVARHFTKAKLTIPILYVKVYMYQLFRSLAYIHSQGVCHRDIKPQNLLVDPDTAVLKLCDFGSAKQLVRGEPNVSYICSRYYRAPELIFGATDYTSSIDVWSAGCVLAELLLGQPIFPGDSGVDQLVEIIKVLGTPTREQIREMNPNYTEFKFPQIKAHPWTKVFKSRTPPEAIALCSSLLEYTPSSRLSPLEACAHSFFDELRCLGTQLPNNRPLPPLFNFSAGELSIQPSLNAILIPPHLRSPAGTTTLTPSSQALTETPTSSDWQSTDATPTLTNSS
Chain of PLK1 (human) (P53350 whole entry, looked up): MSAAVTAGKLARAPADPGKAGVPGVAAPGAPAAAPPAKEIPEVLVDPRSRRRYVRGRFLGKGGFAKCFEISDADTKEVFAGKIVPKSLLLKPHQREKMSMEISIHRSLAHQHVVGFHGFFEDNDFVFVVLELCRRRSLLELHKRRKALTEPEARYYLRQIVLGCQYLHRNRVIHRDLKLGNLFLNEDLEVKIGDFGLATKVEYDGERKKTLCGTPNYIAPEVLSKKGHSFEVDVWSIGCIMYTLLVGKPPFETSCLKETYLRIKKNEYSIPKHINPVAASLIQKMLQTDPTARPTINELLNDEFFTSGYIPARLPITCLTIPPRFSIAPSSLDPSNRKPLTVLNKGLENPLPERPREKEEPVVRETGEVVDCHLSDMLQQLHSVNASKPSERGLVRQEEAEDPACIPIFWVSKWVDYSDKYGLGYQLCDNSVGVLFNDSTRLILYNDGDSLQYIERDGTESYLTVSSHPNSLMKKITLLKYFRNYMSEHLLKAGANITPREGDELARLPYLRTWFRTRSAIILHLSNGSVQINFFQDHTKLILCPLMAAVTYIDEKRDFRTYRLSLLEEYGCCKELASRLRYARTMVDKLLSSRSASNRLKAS

inhibition (AURKB (human); compound 0.02 µM): 4.5%
inhibition (AURKB (human); compound 0.2 µM): 8.3%
inhibition (AURKC (human); compound 0.02 µM): -4.3%
inhibition (AURKC (human); compound 0.2 µM): -4%
inhibition (BTK (human); compound 0.02 µM): 3.4%
inhibition (BTK (human); compound 0.2 µM): 10.1%
inhibition (CDK6 (human); compound 0.02 µM): 11.4%
inhibition (CDK6 (human); compound 0.2 µM): 4.1%
inhibition (CHEK1 (human); compound 0.02 µM): -6.2%
inhibition (CHEK1 (human); compound 0.2 µM): -0.1%
inhibition (CLK1 (human); compound 0.02 µM): 8.1%
inhibition (CLK1 (human); compound 0.2 µM): -6.1%
inhibition (CSNK1G2 (human); compound 0.02 µM): -0.7%
inhibition (CSNK1G2 (human); compound 0.2 µM): -2.1%
inhibition (CSNK1G3 (human); compound 0.02 µM): 2.8%
inhibition (CSNK1G3 (human); compound 0.2 µM): -1.8%
inhibition (EPHA7 (human); compound 0.02 µM): -2.4%
inhibition (EPHA7 (human); compound 0.2 µM): 23.5%
inhibition (EPHB3 (human); compound 0.02 µM): -2.6%
inhibition (EPHB3 (human); compound 0.2 µM): -1.3%
inhibition (GSK3A (human); compound 0.02 µM): 3.5%
inhibition (GSK3A (human); compound 0.2 µM): 2.1%
inhibition (HCK (human); compound 0.02 µM): 0.4%
inhibition (HCK (human); compound 0.2 µM): 21.1%
inhibition (KDR (human); compound 0.02 µM): 96.3%
inhibition (KDR (human); compound 0.2 µM): 101%
inhibition (MAPK9 (human); compound 0.02 µM): -9.4%
inhibition (MAPK9 (human); compound 0.2 µM): -7.7%
inhibition (MARK1 (human); compound 0.02 µM): -2.2%
inhibition (MARK1 (human); compound 0.2 µM): 2.7%
inhibition (MARK2 (human); compound 0.02 µM): 6.9%
inhibition (MARK2 (human); compound 0.2 µM): 9.2%
inhibition (MELK (human); compound 0.02 µM): 6.6%
inhibition (MELK (human); compound 0.2 µM): 10%
inhibition (MUSK (human); compound 0.02 µM): -4.8%
inhibition (MUSK (human); compound 0.2 µM): -1.6%
inhibition (NEK7 (human); compound 0.02 µM): -3.6%
inhibition (NEK7 (human); compound 0.2 µM): -4%
inhibition (PIK3CA PIK3R1 (human); compound 0.02 µM): 26.6%
inhibition (PIK3CA PIK3R1 (human); compound 0.2 µM): 34.9%
inhibition (PIM3 (human); compound 0.02 µM): -1.8%
inhibition (PIM3 (human); compound 0.2 µM): -6.2%
inhibition (PLK1 (human); compound 0.02 µM): -0.1%
inhibition (PLK1 (human); compound 0.2 µM): -2%
inhibition (PRKD1 (human); compound 0.02 µM): -1.3%
inhibition (PRKD1 (human); compound 0.2 µM): -2.2%
inhibition (RPS6KA4 KD1 KD2 (human); compound 0.02 µM): -4.9%
inhibition (RPS6KA4 KD1 KD2 (human); compound 0.2 µM): 2.6%
inhibition (SGK2 (human); compound 0.02 µM): 4.4%
inhibition (SGK2 (human); compound 0.2 µM): 3.9%
inhibition (SIK2 (human); compound 0.02 µM): 3.7%
inhibition (SIK2 (human); compound 0.2 µM): 16.5%
inhibition (STK3 (human); compound 0.02 µM): -2.4%
inhibition (STK3 (human); compound 0.2 µM): -3%
inhibition (STK38 (human); compound 0.02 µM): 9.6%
inhibition (STK38 (human); compound 0.2 µM): -1.9%
inhibition (TBK1 (human); compound 0.02 µM): -1.8%
inhibition (TBK1 (human); compound 0.2 µM): -1.6%
inhibition (TNIK (human); compound 0.02 µM): -0.5%
inhibition (TNIK (human); compound 0.2 µM): 24.9%
inhibition (TNK1 (human); compound 0.02 µM): -2.8%
inhibition (TNK1 (human); compound 0.2 µM): -1.2%
inhibition (TXK (human); compound 0.02 µM): -0.7%
inhibition (TXK (human); compound 0.2 µM): -0.1%
inhibition (WNK3 (human); compound 0.02 µM): 0.8%
inhibition (WNK3 (human); compound 0.2 µM): -1.1%
inhibition (YES1 (human); compound 0.02 µM): 26.9%
inhibition (YES1 (human); compound 0.2 µM): 73.7%
Compound: COc1cc2c(Oc3ccc4[nH]c(C)cc4c3F)ncnc2cc1OCCCN1CCCC1
